Data taken from patent US9029377B2, “Platelet-activating factor receptor antagonists” (Merck Sharp & Dohme Corp., priority 2009, dated 2015).

The compounds below were run against PAFR (Homo sapiens, UniProt P25105) (assay: PAF Binding Assay (PAFR binding)).
PAFR, sequence (P25105 whole entry): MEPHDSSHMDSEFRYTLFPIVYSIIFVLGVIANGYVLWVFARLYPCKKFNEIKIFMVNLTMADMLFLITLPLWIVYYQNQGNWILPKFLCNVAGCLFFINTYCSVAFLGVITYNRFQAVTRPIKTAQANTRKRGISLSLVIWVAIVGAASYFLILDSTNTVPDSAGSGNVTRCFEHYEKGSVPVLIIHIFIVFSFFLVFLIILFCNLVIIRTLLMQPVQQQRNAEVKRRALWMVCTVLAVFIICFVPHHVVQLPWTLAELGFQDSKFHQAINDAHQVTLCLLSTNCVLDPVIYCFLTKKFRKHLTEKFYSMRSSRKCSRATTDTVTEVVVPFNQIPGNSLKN

IC50 [nM]	SMILES
9.7	CCc1cc(-c2ccn3nccc3n2)ccc1S(=O)(=O)N[C@H]1CCC[C@@H](n2cnnc2)C1 [Compound 2Aav, 2-ethyl-4-pyrazolo[1,5-a]pyrimidin-5-yl-N-[(1S,3R)-3-(4H-1,2,4-triazol-4-yl)cyclohexyl]benzenesulfonamide]
45	CCc1cc(-c2nccs2)ccc1S(=O)(=O)N[C@H]1CCC[C@@H](n2cnnc2)C1 [Compound 2Aaw, 2-ethyl-4-(1,3-thiazol-2-yl)-N-[(1S,3R)-3-(4H-1,2,4-triazol-4-yl)cyclohexyl]benzenesulfonamide]
203	CCc1cc(-c2cncs2)ccc1S(=O)(=O)N[C@H]1CCC[C@@H](n2cnnc2)C1 [Compound 2Aax, 2-ethyl-4-(1,3-thiazol-5-yl)-N-[(1S,3R)-3-(4H-1,2,4-triazol-4-yl)cyclohexyl]benzenesulfonamide]
69	CCc1cc(-c2cscn2)ccc1S(=O)(=O)N[C@H]1CCC[C@@H](n2cnnc2)C1 [Compound 2Aay, 2-ethyl-4-(1,3-thiazol-4-yl)-N-[(1S,3R)-3-(4H-1,2,4-triazol-4-yl)cyclohexyl]benzenesulfonamide]
390	CCc1cc(-c2ncns2)ccc1S(=O)(=O)N[C@H]1CCC[C@@H](n2cnnc2)C1 [Compound 2Aaz, 2-ethyl-4-(1,2,4-thiadiazol-5-yl)-N-[(1S,3R)-3-(4H-1,2,4-triazol-4-yl)cyclohexyl]benzenesulfonamide]
3.2	CCc1cc(-c2noc(C3CC3)n2)ccc1S(=O)(=O)N[C@H]1CCC[C@@H](n2cnnc2C2CC2)C1 [Compound 2Ab, 4-(5-cyclopropyl-1,2,4-oxadiazol-3-yl)-2-ethyl-N-[(1S,3R)-3-(3-cycloropyl-4H-1,2,4-triazol-4-yl)cyclohexyl]benzenesulfonamide]
41	CCc1cc(-c2ncc(COC)s2)ccc1S(=O)(=O)N[C@H]1CCC[C@@H](n2cnnc2)C1 [Compound 2Aba, 2-ethyl-4-[5-(methoxymethyl)-1,3-thiazol-2-yl]-N-[(1S,3R)-3-(4H-1,2,4-triazol-4-yl)cyclohexyl]benzenesulfonamide]
2	CCc1cc(-c2noc(C3CC3)n2)ccc1S(=O)(=O)N[C@H]1CCC[C@@H](n2cnnc2C)C1 [Compound 2Abb, 4-(5-cyclopropyl-1,2,4-oxadiazol-3-yl)-2-ethyl-N-[(1S,3R)-3-(3-methyl-4H-1,2,4-triazol-4-yl)cyclohexyl]benzenesulfonamide]
0.5	CCc1cc(-c2ccc(OC(C)C)nc2)ccc1S(=O)(=O)N[C@H]1CCC[C@@H](n2cnnc2C)C1 [Compound 2Abc, 2-ethyl-4-(6-isopropoxypyridin-3-yl)-N-[(1S,3R)-3-(3-methyl-4H-1,2,4-triazol-4-yl)cyclohexyl]benzenesulfonamide]
2.2	CCc1cc(-c2ccc(OC(F)(F)F)cc2)ccc1S(=O)(=O)N[C@H]1CCC[C@@H](n2cnnc2C)C1 [Compound 2Abd, 3-ethyl-N-[(1S,3R)-3-(3-methyl-4H-1,2,4-triazol-4-yl)cyclohexyl]-4′-(trifluoromethoxy)biphenyl-4-sulfonamide]
0.2	CCc1cc(-c2ccc(OCC(F)(F)F)nc2)ccc1S(=O)(=O)N[C@H]1CCC[C@@H](n2cnnc2C)C1 [Compound 2Abe, 2-ethyl-N-[(1S,3R)-3-(3-methyl-4H-1,2,4-triazol-4-yl)cyclohexyl]-4-[6-(2,2,2-trifluoroethoxy)pyridin-3-yl]benzenesulfonamide]
2.7	CCc1cc(-c2ccc(OC(F)(F)F)c(F)c2)ccc1S(=O)(=O)N[C@H]1CCC[C@@H](n2cnnc2C)C1 [Compound 2Abf, 3-ethyl-3′-fluoro-N-[(1S,3R)-3-(3-methyl-4H-1,2,4-triazol-4-yl)cyclohexyl]-4′-(trifluoromethoxy)biphenyl-4-sulfonamide]
22	CCc1cc(OCCC(F)(F)F)ccc1S(=O)(=O)N[C@H]1CCC[C@@H](n2cnnc2)C1 [Compound 2Abk, 2-ethyl-N-[(1S,3R)-3-(4H-1,2,4-triazol-4-yl)cyclohexyl]-4-(3,3,3-trifluoropropoxy)benzenesulfonamide]
30	CCc1cc(-c2ccc(OC(F)(F)F)cc2C)ccc1S(=O)(=O)N[C@H]1CCC[C@@H](n2cnnc2)C1 [Compound 2Abl, 3-ethyl-2′-methyl-N-[(1S,3R)-3-(4H-1,2,4-triazol-4-yl)cyclohexyl]-4′-(trifluoromethoxy)biphenyl-4-sulfonamide]
83	CCc1cc(-c2ccc(C(F)(F)F)cc2C(F)(F)F)ccc1S(=O)(=O)N[C@H]1CCC[C@@H](n2cnnc2)C1 [Compound 2Abm, 3-ethyl-N-[(1S,3R)-3-(4H-1,2,4-triazol-4-yl)cyclohexyl]-2′,4′-bis(trifluoromethyl)biphenyl-4-sulfonamide]
22	CCc1cc(-c2ccc(C(F)(F)F)cc2C)ccc1S(=O)(=O)N[C@H]1CCC[C@@H](n2cnnc2)C1 [Compound 2Abn, 3-ethyl-2′-methyl-N-[(1S,3R)-3-(4H-1,2,4-triazol-4-yl)cyclohexyl]-4′-(trifluoromethyl)biphenyl-4-sulfonamide]
13	CCc1cc(-c2cc(C(F)(F)F)cc(C(F)(F)F)c2)ccc1S(=O)(=O)N[C@H]1CCC[C@@H](n2cnnc2)C1 [Compound 2Abo, 3-ethyl-N-[(1S,3R)-3-(4H-1,2,4-triazol-4-yl)cyclohexyl]-3′,5′-bis(trifluoromethyl)biphenyl-4-sulfonamide]
381	CCc1cc([N+](=O)[O-])ccc1S(=O)(=O)N[C@H]1CCC[C@@H](n2cnnc2)C1 [Compound 2Ae, 2-ethyl-4-nitro-N-[(1S,3R)-3-(4H-1,2,4-triazol-4-yl)cyclohexyl]benzenesulfonamide]
9.9	CCc1cc(-c2ccc(OC)nc2)ccc1S(=O)(=O)N[C@H]1CCC[C@@H](n2cnnc2)C1 [Compound 2Ag, 2-ethyl-4-(6-methoxypyridin-3-yl)-N-[(1S,3R)-3-(4H-1,2,4-triazol-4-yl)cyclohexyl]benzenesulfonamide]
570	CCc1cc(-c2ccc(C#N)nc2)ccc1S(=O)(=O)N[C@H]1CCC[C@@H](n2cnnc2)C1 [Compound 2Ah, 4-(6-cyanopyridin-3-yl)-2-ethyl-N-[(1S,3R)-3-(4H-1,2,4-triazol-4-yl)cyclohexyl]benzenesulfonamide]
119	CCc1cc(-c2ccc(C)nc2)ccc1S(=O)(=O)N[C@H]1CCC[C@@H](n2cnnc2)C1 [Compound 2Ai, 2-ethyl-4-(6-methylpyridin-3-yl)-N-[(1S,3R)-3-(4H-1,2,4-triazol-4-yl)cyclohexyl]benzenesulfonamide]
1060	CCc1cc(-c2cnc(N)nc2)ccc1S(=O)(=O)N[C@H]1CCC[C@@H](n2cnnc2)C1 [Compound 2Aj, 4-(2-aminopyrimidin-5-yl)-2-ethyl-N-[(1S,3R)-3-(4H-1,2,4-triazol-4-yl)cyclohexyl]benzenesulfonamide]

SMILES	IC50 [nM]
CCc1cc(OCCCC(F)(F)F)ccc1S(=O)(=O)N[C@H]1CCC[C@@H](n2cnnc2)C1 [Compound 2Abi, 2-ethyl-N-[(1S,3R)-3-(4H-1,2,4-triazol-4-yl)cyclohexyl]-4-(4,4,4-trifluorobutoxy)benzenesulfonamide]	2.7
CCc1cc(OCCCC(F)(F)F)ccc1S(=O)(=O)N[C@H]1CCC[C@@H](n2cnnc2C)C1 [Compound 2Abj, 2-ethyl-N-[(1S,3R)-3-(3-methyl-4H-1,2,4-triazol-4-yl)cyclohexyl]-4-(4,4,4-trifluorobutoxy)benzenesulfonamide]	2.7
